Entries after “also recorded” stand apart in the source; their conditions may differ. Where two headings read alike, the source gives them in different places. One block for each compound: values may come before it.
Assays:
[1] = tested on: sRA mice; assay: Tail-cuff systolic blood pressure during chronic subcutaneous antagonist infusion; assay type: in vivo; details: 22 ng/h sc, 10 days chronic infusion
[2] = tested on: sRA mice; assay: Radiotelemetric blood pressure, heart rate and physical activity during antagonist infusion; assay type: in vivo
Experimental: Blood pressure (telemetry). Radiotelemetric blood pressures were recorded from the carotid artery essentially as previously reported (29). Briefly, a telemeter probe (DSI, model TA11PA-C10) was inserted into the common carotid artery under ketamine-xylazine anesthesia. After >2 days of recovery, blood pressure, heart rate, and spontaneous physical activity were recorded for 30 s every 5 min using the Dataquest program (DSI). After baseline recordings, mice were chronically delivered conivaptan and tolvaptan via osmotic minipump that was implanted through an interscapular incision into the subcutaneous space of the back under isoflurane anesthesia.

[3] = tested on: sRA and control littermate mice; assay: Blood chemistry following tolvaptan infusion (iSTAT CHEM8+); assay type: in vivo; details: for Crenfinine: lower detection limit 0.20 mg/dl
Experimental: Blood pressure (tail-cuff). Here we first examined blood pressure in sRA mice using a Visitech Systems BP-2000 tail-cuff blood pressure monitoring system, as previously described (84). Briefly, animals were acclimated to warmed restraint boxes daily for 1 wk. Once acclimated, 30 measurements of systolic blood pressure were averaged from each animal daily for 2 wk to assess baseline blood pressure. Conivaptan (Vaprisol, YM 087, 22 ng/h sc, Baxter Healthcare) or tolvaptan (OPC-41061, 22 ng/h sc, Sigma Aldrich) was delivered to distinct subsets of mice by osmotic minipump (model 1004, Alzet). After osmotic minipump implantation, pressures were recorded daily for 10 days to assess drug effects.
Blood and urine analyses: Plasma was obtained by collecting whole blood by submandibular bleed into lithium heparin coated tubes, then centrifuged at 5,000×g for 5 minutes, and the supernatant transferred to a fresh tube and frozen at −80° C. until analysis. Urine was collected using Nalgene single-mouse metabolism cages as previously described (29). Copeptin was measured using an ELISA kit (USCN Life Sciences), according to the manufacturer's instructions. Blood chemistries and urine creatinine were determined using a handheld iSTAT clinical chemistry analyzer (Abbott), with CHEM8+ cartridges. Urine protein was determined using a bicinchoninic acid assay kit (Thermo Fisher/Pierce), according to the manufacturer's instructions.

[4] = tested on: polycystic kidney disease; details: average dose 95 mg per day over 3 years, cited from earlier work
[5] = tested on: patients with heart failure; details: with traditional diuretics; cited from earlier work
[6] = tested on: abdominal aorta; assay: Abdominal aortic ring vascular reactivity (organ bath); assay type: cell-based, mice; details: for Maximum Response: contractile response; for Emax: Mus musculus, relaxation after PGF2α contraction, read-out: Maximum Response
Experimental: Aortic Vascular Reactivity: Abdominal aortic rings were assessed for vascular reactivity as previously described (32). Briefly, mice were euthanized by overdose of pentobarbital (50 mg, i.p.), and the abdominal aorta was quickly removed and placed in Kreb's buffer containing (in mmol/L): 118.3 NaCl, 4.7 KCl, 1.2 MgSO4, 1.2 KH2PO4, 25 NaHCO3, 2.5 CaCl2 and 11 glucose. Vascular rings (4-5 mm in length) were suspended in oxygenated Kreb's buffer (95% O2/5% CO2) in organ baths at 37° C. and connected to a force transducer via steel hooks. Resting tension was adjusted to 0.5 grams over 45 minutes. Contractile responses were tested in response to AVP (10^−10-10^−6 mol/L), phenylephrine (PE, 10^−8-3×10^−5), endothelin-1 (ET-1, 10^−10-10^−7), prostaglandin F2α (PGF2α, 10^−7-10^−4), and angiotensin II (Ang II, 10^−10-10^−7). Following sub-maximal contraction with PGF2α (40-50% of max; 3×10^−6-6×10^−6), relaxation responses to acetylcholine (10^−8-3×10^−5) and sodium nitroprusside (10^−9-10^−5) were determined.
(§1) Statistics: Data were analyzed by ANOVA with repeated measures as appropriate. Post-hoc analyses were performed using Bonferroni multiple-comparisons procedures. EC50 and maximum response calculations were performed by fitting individual dose-response data sets to a four-parameter logistic function (Hillslope method); y=min+([…])/(1+(x/EC50)^Hillslope). All mRNA fold changes were calculated using the Livak method (54). All analytical comparisons were performed using SigmaStat/SigmaPlot (Systat). All data are presented as mean±sem.

[7] = tested on: 2°-branch mesenteric artery; assay: Mesenteric artery vascular reactivity (pressurized myography); assay type: cell-based, mice; details: for Emax: Mus musculus, read-out: Maximum Response
Experimental: Mesenteric Artery Vascular Reactivity: Secondary branches of mesenteric artery were dissected and placed in chilled oxygenated (21% O2, 5% CO2, and 74% N2) Kreb's buffer. A segment (˜1 mm long) of artery was transferred to a vessel chamber (DMT), cannulated with glass micropipettes and secured with silk ligatures. The artery was slowly pressurized to 40 mmHg without flow. After 30 min equilibration, vessel viability was tested by constriction response to 100 mM KCl. Vascular responses to PE (10-9-10-5 mol/L), AVP (10-12-10-7 mol/L), and ET-1 (10-11-10-8 mol/L) were then assessed. The artery was then superfused with calcium-free Krebs buffer containing 10-5 mol/L sodium nitroprusside and 2 mmol/L EGTA to maximally dilate the vessel. Internal and external diameters were measured at 75 mm Hg. Wall thickness, media/lumen ratio and cross sectional area (CSA) were calculated as previously described by Neves, et al. (62).
as §1

[8] = tested on: isolated neurointermediate lobes; details: baseline and potassium-stimulated conditions; cited from earlier work
[9] = tested on: sRA mice and littermate controls; assay: Plasma vasopressin (ELISA) after BH4 treatment; assay type: in vivo; details: BH4 10 mg/kg/day i.p., three days
Experimental: Methods: Double-transgenic sRA mice and littermate controls were placed into single-mouse metabolic cages (Nalgene), and maintained on a 12:12 light:dark cycle at 22° C. with ad libitum access to standard chow (Teklad 7013) and water. Mice were injected once daily (i.p.) with BH4 to achieve 10 mg/kg/day. On the fourth day, mice were sacrificed by CO2 asphyxiation and trunk blood was collected into lithium heparin-coated tubes and placed on ice between 11:30 AM and 1:00 PM (5.5 to 7 hours into the light phase of the standard light cycle). Blood was then centrifuged at 2,000×g for 20 minutes. Plasma was collected and stored at −80° C. until analysis. Plasma samples were analyzed for vasopressin using a commercially-available ELISA kit (Cayman, catalog #583951), according to the manufacturer's instructions. Results falling outside the range of the standard curve (>3,000 pg/mL or <23.4 pg/mL) were set to the maximum or minimum (3,000 or 23.4 pg/mL), respectively, for statistical comparisons. Data were analyzed by three-way ANOVA followed by Tukey all-pairwise multiple comparison procedures.

[10] = tested on: rats; details: euhydrated vs dehydrated; cited from earlier work
[11] = tested on: DOCA-salt hypertension; details: rats, intracerebroventricular (ICV) infusion; cited from earlier work
[12] = exemplar female sRA mouse, conivaptan 22 ng/h sc, 18 days
[13] = males, Control mice, tolvaptan 22 ng/h, 10 days sc

SMILES: Cc1nc2c([nH]1)-c1ccccc1N(C(=O)c1ccc(NC(=O)c3ccccc3-c3ccccc3)cc1)CC2 [Conivaptan, N-(4-((4,5-dihydro-2-methylimidazo[4,5-d][1]benzazepin-6(1H)-yl)carbonyl)phenyl)-(1,1′-biphenyl)-2-carboxamide]
systolic blood pressure (tail-cuff) [1]: complete normalization of the hypertension
blood pressure (telemetry, MAP) [2, 12]: gradual but substantial reduction in blood pressure
heart rate (telemetry) [2, 12]: slight reduction in heart rate
spontaneous physical activity [2, 12]: remained normal

Crenfinine ([3]; females, Control mice, tolvaptan 22 ng/h, 10 days sc): 0.24 ± 0.02 mg/dL
Crenfinine ([3]; females, sRA mice, tolvaptan 22 ng/h, 10 days sc): 0.33 ± 0.04 mg/dL
Crenfinine [3, 13]: 0.25 ± 0.03 mg/dL
Crenfinine ([3]; males, sRA mice, tolvaptan 22 ng/h, 10 days sc): 0.30 ± 0.04 mg/dL
SMILES: Cc1ccccc1C(=O)Nc1ccc(C(=O)N2CCC[C@@H](O)c3cc(Cl)ccc32)c(C)c1 [Tolvaptan, N-(4-[[(5R)-7-chloro-5-hydroxy-2,3,4,5-tetrahydro-1H-1-benzazepin-1-yl]carbonyl]-3-methylphenyl)-2-methylbenzamide]
systolic blood pressure (tail-cuff) [1]: nearly identical normalization of blood pressure
hyponatremia and hypocalcemia of sRA mice ([3]; chronic tolvaptan delivery, genotype X drug interaction P<0.05 for both): corrected both of these imbalances
Sodium [3, 13]: 148 mM
reduction of the decline in kidney function compared with placebo [4]: approximately 30%
slowing of the usual increase in kidney volume compared to placebo [4]: 50%
increase in kidney volume ([4]; placebo 5.51, p<0.001): 2.80 % per year
reciprocal serum creatinine ([4]; placebo −3.81, p<0.001): −2.61 (mg/mL)-1 per year
blood pressure (radiotelemetry, MAP) ([2]; cohort of sRA mice (n=4 female), tolvaptan sc infusion 10 days): blood pressure reduction was confirmed
excretion of excess fluids and blood sodium levels [5]: increase excretion of excess fluids and improve blood sodium levels
side effects [5]: without producing side effects such as hypotension (low blood pressure) or hypokalemia

SMILES: CC[C@H](C)[C@H](NC(=O)[C@H](CC(=O)O)NC(=O)[C@H](CC(C)C)NC(=O)[C@H](Cc1c[nH]cn1)NC(=O)[C@@H]1CSSC[C@H](N)C(=O)N[C@@H](CO)C(=O)N[C@H]2CSSC[C@H](NC(=O)[C@H](CCC(=O)O)NC(=O)[C@H](CCCCN)NC(=O)[C@H](CC(=O)O)NC(=O)[C@H](CCSC)NC(=O)[C@H](CC(C)C)NC(=O)[C@H](CO)NC(=O)[C@H](CO)NC2=O)C(=O)N[C@@H](C(C)C)C(=O)N[C@@H](Cc2ccc(O)cc2)C(=O)N[C@@H](Cc2ccccc2)C(=O)N1)C(=O)N[C@H](C(=O)N[C@@H](Cc1c[nH]c2ccccc12)C(=O)O)[C@@H](C)CC [Endothelin-1]
Maximum Response ([6]; male Control mice): 0.45 ± 0.04 g
Maximum Response ([6]; male sRA mice): 0.55 ± 0.09 g
Maximum Response ([7]; male Control mice): 67.8 ± 4.3%
Maximum Response ([7]; male sRA mice): 58.0 ± 4.6%

SMILES: CNC[C@H](O)c1cccc(O)c1 [Phenylephrine]
Emax ([7]; male Control mice): 67.3 ± 3%
Emax ([7]; male sRA mice): 64.5 ± 4.1%

SMILES: CCCCC[C@H](O)/C=C/[C@@H]1[C@@H](C/C=C\CCCC(=O)O)[C@@H](O)C[C@H]1O [Prostaglandin F2α]
Maximum Response ([6]; male Control mice): 1.59 ± 0.06 g
Maximum Response ([6]; male sRA mice): 1.50 ± 0.10 g

SMILES: CC[C@H](C)[C@H](NC(=O)[C@H](Cc1ccc(O)cc1)NC(=O)[C@@H](NC(=O)[C@H](CCCNC(=N)N)NC(=O)[C@@H](N)CC(=O)O)C(C)C)C(=O)N[C@@H](Cc1c[nH]cn1)C(=O)N1CCC[C@H]1C(=O)N[C@@H](Cc1ccccc1)C(=O)O [Angiotensin II]
Maximum Response ([6]; male Control mice): 0.32 ± 0.03 g
Maximum Response ([6]; male sRA mice): 0.38 ± 0.03 g

SMILES: CC(=O)OCC[N+](C)(C)C [Acetylcholine]
Emax ([6]; male Control mice): 78.9 ± 3.3%
Emax ([6]; male sRA mice): 70.4 ± 8.9%

SMILES: C[C@H](O)[C@H](O)[C@H]1CNc2[nH]c(N)nc(=O)c2N1 [BH4, (6R)-2-Amino-6-[(1R,2S)-1,2-dihydroxypropyl]-5,6,7,8-tetrahydropteridin-4(1H)-one]
vasopressin content [8]: reduces vasopressin content
steady-state plasma AVP levels ([9]; control littermate mice): no effect on steady-state AVP levels; also recorded: unchanged
steady-state plasma AVP levels ([9]; sRA mice): significant (P=0.017) reduction; also recorded: significantly (*P=0.017) reduced
neurohypophysial vasopressin [10]: reduces neurohypophysial vasopressin under euhydrated but not dehydrated conditions

SMILES: C[C@H](CS)C(=O)N1CCC[C@H]1C(=O)O [captopril]
DOCA-salt hypertension [11]: both prevented and reversed DOCA-salt hypertension

From US9937182B2, “Therapeutic strategies for the treatment of preeclampsia” (UNIVERSITY OF IOWA RESEARCH FOUNDATION, priority 2013, dated 2018)
